Test results reported in patent US9796704B2, “Substituted quinazolines as receptor-type kinase inhibitors” (Symphony Evolution, Inc., priority 2002, dated 2017).

Legend:
[1] = target: EphB4 (Homo sapiens (Human), UniProt P54760); assay: EphB4 kinase inhibition, 33P phosphoryl transfer assay (radiometric); type: biochemical
[2] = target: KDR (Homo sapiens (Human), UniProt P35968); assay: KDR kinase inhibition, luciferase-coupled chemiluminescent assay (LCCA); details: read-out: KDR IC50
Experimental: (§1) Kinase activity and compound inhibition are investigated using one or more of the three assay formats described below. The ATP concentrations are selected near its Michaelis-Menten constant (KM) for each individual kinase. Dose-response experiments are performed at ten different inhibitor concentrations in a 384-well plate format. […] Typically H is close to unity.
(§2) In the LCCA assays, kinase activity is measured by the ATP consumption that is accurately measured by luciferase-coupled chemiluminescence. Greiner 384-well white clear bottom medium binding plates are used for LCCA. Briefly the kinase reaction is initiated by mixing compounds, ATP and kinases in a 20 μL volume. At the end of the kinase reaction, a 20 μL luciferase-luciferin mix is added and the chemiluminescent signal is read on a Wallac Victor^2 reader.

[3] = target: EGFR (Homo sapiens (Human), UniProt P00533); assay: EGFR kinase inhibition, luciferase-coupled chemiluminescent assay (LCCA); details: read-out: EGFR IC50
Experimental: as §1, §2

[4] = target: EphA2 (Homo sapiens (Human), UniProt P29317); assay: EphA2 kinase inhibition, luciferase-coupled chemiluminescent assay (LCCA); details: read-out: EphA2 IC50
Sequence of EphA2 (P29317 598-890): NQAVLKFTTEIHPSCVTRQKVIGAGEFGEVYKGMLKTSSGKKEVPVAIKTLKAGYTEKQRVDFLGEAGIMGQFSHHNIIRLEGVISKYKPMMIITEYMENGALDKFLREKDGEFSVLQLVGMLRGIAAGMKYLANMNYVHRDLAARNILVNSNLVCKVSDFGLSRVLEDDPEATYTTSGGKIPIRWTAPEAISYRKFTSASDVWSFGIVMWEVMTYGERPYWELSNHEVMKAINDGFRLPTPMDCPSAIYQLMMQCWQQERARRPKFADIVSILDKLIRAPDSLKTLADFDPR
Experimental: as §1, §2

[5] = target: ErbB2 (Homo sapiens (Human), UniProt P04626); assay: ErbB2 kinase inhibition, AlphaScreen; type: biochemical
Experimental: Kinase activity and compound inhibition are investigated using one or more of the three assay formats described below. The ATP concentrations are selected near its Michaelis-Menten constant (KM) for each individual kinase. Dose-response experiments are performed at ten different inhibitor concentrations in a 384-well plate format. […] These parameters are obtained by nonlinear regression algorithm built into ActivityBase software (available from ID Business Solutions Ltd., of Guildford, Surrey, UK). ^33P Phosphoryl Transfer Assay (Radiometric)

Sequence of KDR (P35968 807-1356): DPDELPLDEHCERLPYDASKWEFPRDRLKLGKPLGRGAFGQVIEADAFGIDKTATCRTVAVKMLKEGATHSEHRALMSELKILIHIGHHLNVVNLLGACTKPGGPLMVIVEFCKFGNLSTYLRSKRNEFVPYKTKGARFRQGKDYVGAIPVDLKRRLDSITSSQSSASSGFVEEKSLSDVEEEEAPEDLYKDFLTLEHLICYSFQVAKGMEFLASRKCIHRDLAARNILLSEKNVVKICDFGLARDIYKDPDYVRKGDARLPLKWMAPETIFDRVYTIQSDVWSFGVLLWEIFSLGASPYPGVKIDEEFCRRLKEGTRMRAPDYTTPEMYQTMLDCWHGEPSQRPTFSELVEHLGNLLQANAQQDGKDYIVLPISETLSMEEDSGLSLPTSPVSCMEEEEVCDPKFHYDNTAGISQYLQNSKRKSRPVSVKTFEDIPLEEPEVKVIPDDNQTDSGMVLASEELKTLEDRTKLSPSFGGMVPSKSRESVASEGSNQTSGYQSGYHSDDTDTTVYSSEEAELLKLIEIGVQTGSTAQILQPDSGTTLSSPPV
Sequence of EphB4 (P54760 605-890): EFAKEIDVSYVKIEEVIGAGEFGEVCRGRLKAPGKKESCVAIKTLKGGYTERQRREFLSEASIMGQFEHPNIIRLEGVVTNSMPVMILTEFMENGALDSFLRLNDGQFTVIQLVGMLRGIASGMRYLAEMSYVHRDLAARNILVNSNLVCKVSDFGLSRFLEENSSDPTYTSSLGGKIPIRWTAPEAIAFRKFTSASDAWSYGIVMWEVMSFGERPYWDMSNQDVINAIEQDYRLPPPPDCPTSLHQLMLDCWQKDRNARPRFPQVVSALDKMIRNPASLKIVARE

Row | IC50 [1] [nM] | IC50 [2] [nM] | IC50 [3] [nM] | IC50 [4] [nM] | IC50 [5] [nM] | Compound
1 | < 50 | < 50 | < 50 | 50 to 1000 | < 50 | COc1cc2c(Nc3ccc(Cl)c(Cl)c3)ncnc2cc1OCCN1C(=O)c2ccccc2C1=O [Example 193, 2-(2-{[4-[(3,4-dichlorophenyl)amino]-6-(methyloxy)quinazolin-7-yl]oxy}ethyl)-1H-isoindole-1,3(2H)-dione]
2 | < 50 | < 50 | < 50 | < 50 | < 50 | COc1cc2c(Nc3ccc(Cl)c(Cl)c3)ncnc2cc1OCCC1CCCN1C (stereo not drawn) [Example 237, N-(3,4-dichlorophenyl)-6-(methyloxy)-7-{[2-(1-methylpyrrolidin-2-yl)ethyl]oxy}quinazolin-4-amine]
3 | < 50 | < 50 | < 50 | < 50 | < 50 | COc1cc2c(Nc3ccc(Cl)c(Cl)c3)ncnc2cc1OCc1nc([C@@H]2CCCN2)no1 [Example 243, N-(3,4-dichlorophenyl)-6-(methyloxy)-7-[({3-[(2S)-pyrrolidin-2-yl]-1,2,4-oxadiazol-5-yl}methyl)oxy]quinazolin-4-amine]
4 | < 50 | < 50 | < 50 | < 50 | < 50 | CCN(CC)c1ccc(-c2csc(COc3cc4ncnc(Nc5ccc(Cl)c(Cl)c5)c4cc3OC)n2)cc1 [Example 199, N-(3,4-dichlorophenyl)-7-[({4-[4-(diethylamino)phenyl]-1,3-thiazol-2-yl}methyl)oxy]-6-(methyloxy)quinazolin-4-amine]
5 | < 50 | < 50 | < 50 | < 50 | < 50 | COc1cc2c(Nc3ccc(Cl)c(Cl)c3)ncnc2cc1OCc1noc(C2CCCCN2C(=O)OC(C)(C)C)n1 (stereo not drawn) [Example 196, 1,1-dimethylethyl 2-[3-({[4-[(3,4-dichlorophenyl)amino]-6-(methyloxy)quinazolin-7-yl]oxy}methyl)-1,2,4-oxadiazol-5-yl]piperidine-1-carboxylate]
6 | < 50 | < 50 | < 50 | < 50 | < 50 | COc1cc2c(Nc3ccc(Cl)c(Cl)c3)ncnc2cc1OCc1nc(-c2ccc(N3CCCC3)cc2)cs1 [Example 198, N-(3,4-dichlorophenyl)-6-(methyloxy)-7-({[4-(4-pyrrolidin-1-ylphenyl)-1,3-thiazol-2-yl]methyl}oxy)quinazolin-4-amine]
7 | < 50 | < 50 | < 50 | 50 to 1000 | < 50 | COc1cc2c(Nc3ccc(Cl)c(Cl)c3)ncnc2cc1OCc1nc(-c2ccc(C(C)(C)C)cc2)no1 [Example 226, N-(3,4-dichlorophenyl)-7-[({3-[4-(1,1-dimethylethyl)phenyl]-1,2,4-oxadiazol-5-yl}methyl)oxy]-6-(methyloxy)quinazolin-4-amine]
8 | < 50 | < 50 | < 50 | < 50 | < 50 | CCN1CCC(c2nc(COc3cc4ncnc(Nc5ccc(Cl)c(Cl)c5)c4cc3OC)no2)CC1 [Example 238, N-(3,4-dichlorophenyl)-7-({[5-(1-ethylpiperidin-4-yl)-1,2,4-oxadiazol-3-yl]methyl}oxy)-6-(methyloxy)quinazolin-4-amine]

Row | Compound | IC50 [1] [nM] | IC50 [2] [nM] | IC50 [3] [nM] | IC50 [4] [nM] | IC50 [5] [nM]
9 | N-(3,4-dichlorophenyl)-6-(methyloxy)-7-({[3-(4-methylpiperazin-1-yl)-1,2,4-oxadiazol-5-yl]methyl}oxy)quinazolin-4-amine [Example 33] | < 50 | < 50 | < 50 | 50 to 1000 | 50 to 1000
